Laboratory results taken from patent EP0354323A2, “Antidiabetic phosphates” (AMERICAN CYANAMID COMPANY, priority 1988, dated 1990).
pEC50, pIC50: −log10 of the molar value. Counter-ions that a name gives are not always drawn. Like-named read-outs stand apart in the source and are kept apart here.

Columns and labels:
Format in all cases: biochemical
[1] = target: T1, purified rat liver 6-phosphofructo-1-kinase (Rattus norvegicus, UniProt P30835); test: Stimulation of 6-phosphofructo-1-kinase (PFK), aldolase-coupled spectrophotometric assay; details: stimulation of enzyme; pH 7.3, 30°C, 1 mM ATP, reaction initiated with 0.2 mM fructose-6-phosphate; read-out: PFK ED₅₀
T1 construct: 0.1U of purified rat liver 6-phosphofructo-1-kinase; from tissue; host or cells: rat liver
T1 sequence (P30835 2-780 limits assumed): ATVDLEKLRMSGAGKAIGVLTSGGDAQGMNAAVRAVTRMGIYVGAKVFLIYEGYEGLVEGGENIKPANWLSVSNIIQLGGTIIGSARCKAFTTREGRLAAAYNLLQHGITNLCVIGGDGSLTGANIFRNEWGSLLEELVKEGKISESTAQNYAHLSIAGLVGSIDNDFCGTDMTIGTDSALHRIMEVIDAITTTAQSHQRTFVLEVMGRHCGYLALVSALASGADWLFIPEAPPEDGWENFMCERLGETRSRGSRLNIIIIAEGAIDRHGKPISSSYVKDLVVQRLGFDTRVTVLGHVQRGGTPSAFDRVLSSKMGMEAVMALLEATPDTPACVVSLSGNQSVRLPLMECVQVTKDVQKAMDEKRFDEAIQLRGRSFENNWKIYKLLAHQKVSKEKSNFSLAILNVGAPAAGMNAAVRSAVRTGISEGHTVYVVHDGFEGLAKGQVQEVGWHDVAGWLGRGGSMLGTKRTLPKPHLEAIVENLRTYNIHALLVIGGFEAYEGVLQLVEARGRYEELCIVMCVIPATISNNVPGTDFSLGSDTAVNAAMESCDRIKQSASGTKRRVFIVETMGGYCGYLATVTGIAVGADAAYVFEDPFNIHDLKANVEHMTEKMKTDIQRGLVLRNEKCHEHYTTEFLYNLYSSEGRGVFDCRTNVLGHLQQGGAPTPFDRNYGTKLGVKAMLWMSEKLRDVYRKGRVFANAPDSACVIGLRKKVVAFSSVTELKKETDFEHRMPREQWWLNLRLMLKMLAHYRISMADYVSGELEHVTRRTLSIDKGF
Procedure: (§1) The novel compounds of this invention were tested for their ability to stimulate the enzyme 6-phosphofructo-1-kinase ("PFK") and for their ability to inhibit the enzyme fructose-1,6-bisphosphatase ("FBP") using the procedures described below.
Effects on the activity of PFK were determined using an aldolase-coupled, spectrophotometric assay. The assay mixture contained: 50 mM N-tris(hydroxymethyl)methyl-2-aminoethanesulfonic acid, hydrochloride ("TES-HCl", pH 7.3); 1mM ethylenediaminetetraacetic acid ("EDTA"); 6 mM magnesium chloride; 2.5 mM dithiothreitol; 0.165 mM nicotinamide adenine dinucleotide ("NADH"); 1mM adenosine triphosphate ("ATP"); 0.04U aldolase; 0.4U triose phosphate isomerase; 1.5U alpha-glycerolphosphate dehydrogenase; 0.1U of purified rat liver 6-phosphofructo-1-kinase; and various concentrations of the test compound, all in a final volume of 1 ml. The mixture was preincubated for 3 minutes at 30°C and then the reaction was initiated with 0.2 mM fructose-6-phosphate. The rate of decrease in absorbance at 340 nm was measured at 30°C with a recording spectrophotometer.

[2] = target: T2, purified rat liver FBP (Rattus norvegicus, UniProt P19112); test: Inhibition of fructose-1,6-bisphosphatase (FBP), spectrophotometric assay
T2 construct: 0.02U of purified rat liver FBP; from tissue; host or cells: rat liver
T2 sequence (P19112 2-363 limits assumed): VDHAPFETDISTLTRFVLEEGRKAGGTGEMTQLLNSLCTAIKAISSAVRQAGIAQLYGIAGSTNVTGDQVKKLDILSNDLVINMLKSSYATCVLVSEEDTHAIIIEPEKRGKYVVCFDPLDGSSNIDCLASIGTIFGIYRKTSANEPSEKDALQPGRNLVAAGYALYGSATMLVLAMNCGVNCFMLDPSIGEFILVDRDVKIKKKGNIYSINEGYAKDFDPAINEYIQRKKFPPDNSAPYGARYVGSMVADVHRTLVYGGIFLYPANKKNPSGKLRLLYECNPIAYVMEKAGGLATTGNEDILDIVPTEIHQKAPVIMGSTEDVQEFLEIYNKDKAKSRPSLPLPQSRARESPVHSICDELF
Procedure: as §1
Effects on the activity of FBP were determined using a spectrophotometric assay. The assay mixture contained: 100 mM tris(hydroxymethyl)aminomethane, hydrochloride ("TRIS-HCl", pH 7.4); 2.5 mM beta-mercaptoethanol; 2 mM magnesium chloride; 0.05 mM EDTA; 0.2 mM nicotinamide adenine dinucleotide phosphate ("NADP"); 10 U phosphoglucose isomerase; 5 U glucose-6-phosphate dehydrogenase; 0.02U of purified rat liver FBP; and various concentrations of the test compound, all in a final volume of 1 ml. The mixture was preincubated for 3 minutes at 30°C and then the reaction was initiated with 0.02 mM fructose-1,6-bisphosphate. The rate of increase in absorbance at 340 nm was measured at 30°C with a recording spectrophotometer.

[3] = target: T3, partially purified potato tuber 6-phosphofructo-1-kinase (Solanum tuberosum, UniProt P21342+P21343); test: Stimulation of pyrophosphate-dependent 6-phosphofructo-1-kinase (PPi-PFK), aldolase-coupled spectrophotometric assay; details: stimulation of enzyme; pH 8.0, 30°C, 1 mM fructose-6-phosphate, reaction initiated with 0.5 mM sodium pyrophosphate; read-out: PPi-PFK ED₅₀
T3 construct: 0.1U of partially purified potato tuber; from tissue; host or cells: potato tuber
T3 sequence (P21343 1-569): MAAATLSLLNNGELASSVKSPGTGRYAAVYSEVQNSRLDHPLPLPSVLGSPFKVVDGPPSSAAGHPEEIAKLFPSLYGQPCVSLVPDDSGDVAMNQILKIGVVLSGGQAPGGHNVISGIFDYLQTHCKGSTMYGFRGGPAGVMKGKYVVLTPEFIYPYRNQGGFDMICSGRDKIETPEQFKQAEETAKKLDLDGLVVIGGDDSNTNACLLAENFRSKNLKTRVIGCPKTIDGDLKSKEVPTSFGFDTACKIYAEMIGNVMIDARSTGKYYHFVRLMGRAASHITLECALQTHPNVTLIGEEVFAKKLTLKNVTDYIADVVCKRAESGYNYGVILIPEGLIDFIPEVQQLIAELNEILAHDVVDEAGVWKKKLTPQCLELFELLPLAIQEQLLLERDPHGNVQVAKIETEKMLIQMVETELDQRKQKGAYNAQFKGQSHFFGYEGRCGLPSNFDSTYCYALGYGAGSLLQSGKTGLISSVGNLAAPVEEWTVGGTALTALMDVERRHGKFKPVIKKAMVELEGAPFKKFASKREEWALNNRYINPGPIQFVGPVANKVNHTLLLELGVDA
T3 sequence (P21342 1-616): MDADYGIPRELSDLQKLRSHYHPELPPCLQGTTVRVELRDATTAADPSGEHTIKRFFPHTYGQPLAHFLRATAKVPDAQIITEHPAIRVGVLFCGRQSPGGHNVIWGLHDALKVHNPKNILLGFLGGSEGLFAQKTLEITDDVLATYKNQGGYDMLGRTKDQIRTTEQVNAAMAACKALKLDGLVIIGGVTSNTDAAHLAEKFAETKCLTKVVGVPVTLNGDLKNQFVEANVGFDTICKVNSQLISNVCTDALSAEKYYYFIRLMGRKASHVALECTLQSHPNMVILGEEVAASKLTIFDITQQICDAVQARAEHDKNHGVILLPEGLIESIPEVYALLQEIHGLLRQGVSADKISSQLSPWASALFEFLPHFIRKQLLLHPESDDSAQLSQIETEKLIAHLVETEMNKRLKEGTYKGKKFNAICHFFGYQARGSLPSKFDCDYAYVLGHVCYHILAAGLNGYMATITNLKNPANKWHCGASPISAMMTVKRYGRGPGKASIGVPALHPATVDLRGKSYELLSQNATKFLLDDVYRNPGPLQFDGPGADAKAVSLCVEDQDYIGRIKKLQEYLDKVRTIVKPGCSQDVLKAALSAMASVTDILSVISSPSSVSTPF
Procedure: The novel compounds of this invention were also tested for their ability to stimulate the enzyme pyrophosphate-dependent 6-phosphofructo-1-kinase ("PPi-PFK"), a growth regulator in plants, using the procedures described below.
Effects on the activity of PPi-PFK were determined using an aldolase-coupled, spectrophotometric assay. The assay mixture contained: 50 mM N-tris(hydroxymethyl)methyl-2-aminoethanesulfonic acid, hydrochloride ("TES-HCl", pH 8.0); 1mM ethylenediaminetetraacetic acid ("EDTA"); 6 mM magnesium chloride; 2.5 mM dithiothreitol; 0.165 mM nicotinamide adenine dinucleotide ("NADH"); 1mM fructose-6-phosphate; 0.04U aldolase; 0.4U triose phosphate isomerase; 1.5U alpha-glycerolphosphate dehydrogenase; 0.1U of partially purified potato tuber 6-phosphofructo-1-kinase; and various concentrations of the test compound, all in a final volume of 1 ml. The mixture was preincubated for 3 minutes at 30°C and then the reaction was initiated with 0.5 mM sodium pyrophosphate. The rate of decrease in absorbance at 340 nm was measured at 30°C with a recording spectrophotometer.

[4] = inhibition of enzyme, pH 7.4, 30°C, reaction initiated with 0.02 mM fructose-1,6-bisphosphate, read-out: FBP IC₅₀

| pEC50 [1] | pEC50 [3] | pIC50 [2, 4] | SMILES | pIC50 [2] |
| --- | --- | --- | --- | --- |
| 5.20 | 6.40 | – | O=P(O)(O)OC[C@H]1O[C@@](CO)(COP(=O)(O)O)[C@@H](O)[C@@H]1O [2,5-Anhydro-2-C-(hydroxymethyl)-D-glucitol, 1,6-bis(dihydrogen phosphate)] | – |
| 6.82 | – | < 3.10 | O=P(O)(O)OC[C@H]1O[C@](OP(=O)(O)O)(C(F)F)[C@@H](O)[C@@H]1O [1-Deoxy-1,1-difluoro-D-fructofuranose, 2,6-bis (dihydrogen phosphate), β-anomer, disodium salt] | – |
| 7.70 | 8.40 | 5.52 | O=P(O)(O)OC[C@H]1O[C@@](CO)(OP(=O)(O)O)[C@@H](O)[C@@H]1O [Beta-D-fructose-2,6-bisphosphate, reference compound] | – |
| 6.25 | – | 4.30 | O=P(O)(O)OCC[C@H]1O[C@H](COP(=O)(O)O)[C@@H](O)[C@@H]1O [3,6-Anhydro-2-deoxy-D-manno-heptitol, 1,7-bis(dihydrogen phosphate)] | – |
| 7.30 | – | < 3.10 | O=P(O)(O)OC[C@H]1O[C@@](OP(=O)(O)O)(C(F)F)[C@@H](O)[C@@H]1O [1-Deoxy-1,1-difluoro-D-fructofuranose, 2,6-bis(dihydrogen phosphate), α-anomer, disodium salt] | – |
| 5.14 | – | 4.00 | O=P(O)(O)OCC[C@@]1(CO)O[C@H](COP(=O)(O)O)[C@@H](O)[C@@H]1O [3,6-Anhydro-2-deoxy-3-C-(hydroxymethyl)-D-manno-hepitol, 1,7-bis(dihydrogen phosphate)] | – |
| 5.68 | – | – | O=P(O)(O)OC[C@@H](O)[C@H]1O[C@H](COP(=O)(O)O)[C@@H](O)[C@@H]1O [2,5-Anhydro-D-glycero-D-manno-heptitol, 1,7-bis(dihydrogen phosphate)] | – |
| 5.70 | 5.18 | – | O=P(O)(O)OC[C@H]1O[C@](CO)(COP(=O)(O)O)[C@@H](O)[C@@H]1O [2,5-Anhydro-2-C-[(phosphonooxy)methyl]-D-glucitol, 6-(dihydrogen phosphate)] | – |
| – | 4.82 | – | O=P(O)(O)OC[C@H]1O[C@@](OP(=O)(O)O)(C(F)F)[C@@H](O)[C@@H]1O [1-Deoxy-1,1-difluoro-D-fructofuranose, 2,6-bis(dihydrogen phosphate), α-anomer, tetrasodium salt] | – |
| 5.40 | – | 3.64 | O=P(O)(O)OCC[C@@H]1O[C@H](COP(=O)(O)O)[C@@H](O)[C@@H]1O [3,6-Anhydro-2-deoxy-D-gluco-heptitol, 1,7-bis(dihydrogen phosphate)] | – |
| 5.66 | – | 4.49 | O=P(O)(O)OC[C@@H]1O[C@H](COP(=O)(O)O)[C@@H](O)[C@@H]1O [2,5-Anhydro-D-glucitol, 1,6-bis(dihydrogen phosphate)] | – |
| 4.92 | – | – | O=P(O)(O)OCCCC1O[C@H](COP(=O)(O)O)[C@@H](O)[C@@H]1O (stereo partly drawn) [4,7-Anhydro-2,3-dideoxy-D-gluco-octitol, 1,8-bis(dihydrogen phosphate), and 4,7-Anhydro-2,3-dideoxy-D-manno-octitol, 1,8-bis(dihydrogen phosphate)] | – |
| 3.52 | 3.00 | 3.35 | O=P(O)(O)OC[C@H]1OC(O)(C(F)F)[C@@H](O)[C@@H]1O (stereo partly drawn) [1-Deoxy-1,1-difluoro-D-fructofuranose, 6-(dihydrogen phosphate), sodium salt] | – |
| – | 6.52 | – | O=P(O)(O)OC[C@H]1O[C@](OP(=O)(O)O)(C(F)F)[C@@H](O)[C@@H]1O [1-Deoxy-1,1-difluoro-D-fructofuranose, 2,6-bis(dihydrogen phosphate), β-anomer, tetrasodium salt] | – |

| SMILES | pEC50 [1] | pEC50 [3] | pIC50 [2, 4] | pIC50 [2] |
| --- | --- | --- | --- | --- |
| O=P(O)(O)OC[C@H]1O[C@H](COP(=O)(O)O)[C@@H](O)[C@@H]1O [2,5-Anhydro-D-mannitol, 1,6-bis(dihydrogen phosphate)] | 6.59 | – | – | 5.70 |
